The target in the assay is T1, HLA-A*11:01 protein (Homo sapiens, UniProt P04439, A114D/D185E/E176A/F33Y/L180Q/S129P/T187R).
T1 construct: biotin (biotinylated)
The assay is described as follows: Bio-Layer Interferometry (BLI) affinity test, Octet R8. To be noted: Octet R8, SSA sensors, peptides 100-3.125 µM in PBST (PBS+0.02%Tween20+1% DMSO), balance, binding, dissociation 60 s each. Background: Biolayer interferometry detects binding as a change in optical thickness at a sensor tip.

4 sequences from article PMC9006954, “Computer-Based Immunoinformatic Analysis to Predict Candidate T-Cell Epitopes for SARS-CoV-2 Vaccine Design” (Frontiers in Immunology, 2022) can be followed below.

Where no end group is shown, it is not given here.

Broadly, the Kd is the free concentration of one partner at which half of the binding sites on the other are occupied at equilibrium, for simple one-to-one binding. A higher Kd goes with weaker binding. FSTFKCYGV [reference compound] showed a Kd of 29.1 µM. This lies in the double-digit micromolar range.
On the same count and under the same terms, the value for GVSPTKLNDL [reference compound] was 656 µM.
Consider SQCVNLTTR [reference compound], for which the KD result is on record as “Non-binding”.
The sequence KCYGVSPTK [reference compound] gave a Kd of 23.5 µM.
